IC50 data for 14 compounds are collected here from patent publication US20140005163A1 (NOVARTIS AG, priority 2010, published 2014).

The test system of assay [1] is S6 Ribosomal Protein phosphorylation Ser235/236 in TSC1 null mouse embryo fibroblast (MEF) cells. The assay can be described thus: Reverse protein array assay, S6 Ribosomal Protein phosphorylation Ser235/236 in TSC1 null MEF cells. In kind it is cell-based. As to conditions: 1 h, pS6 ribosomal protein Ser235/236, 60 minutes incubation, read-out: p-S6 IC50. The gist of the method: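 TSC1−/− MEFs, seeded and held ≥20 h at 37 °C/5% CO2, were exposed to 8-step serial compound dilutions (0.02% DMSO final; DMSO vehicle control) for 60 min at 37 °C. Cells were then lysed on ice for 10 min and lysates spotted onto reverse protein array chips.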

Another assay has as its target T1, mTOR (Homo sapiens, UniProt P42345).
T1 construct: purchased Invitrogen Corporation (Carlsbad/CA, USA) PV4753
The assay can be described thus: Biochemical assay for m-TOR by TR-FRET. Particulars: 8 μM ATP, 400 nM GFP-4EBP1, 0.5 nM mTOR. The method in brief: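 mTOR (0.5 nM final) phosphorylated GFP-4EBP1 (400 nM final) with ATP (8 μM final) at rt in 50 mM HEPES pH 7.5, 10 mM MnCl2, 50 mM NaCl, 1 mM EGTA, 1 mM DTT. EDTA stop with Tb3+-anti-p4EBP1 [pThr46] antibody (0.5 nM); TR-FRET read 15 min later.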
In general terms: TR-FRET usually uses a lanthanide donor and a delayed reading to cut background.

Another assay has as its target T2, PI3K alpha (Homo sapiens, UniProt P42336).
T2 construct: p85(iSH2) fusion partner (see partner chain) (N); His tag (C); made in house; host or cells: baculovirus; Tn5 (Trichoplusia ni) or TiniPro insect cells
The assay can be described thus: PI3K alpha kinase assay (Kinase-Glo luminescence). In kind it is biochemical. The gist of the method:
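PI3Kα construct EMV B1075 (10 nM final) was preincubated with 10 μg/mL phosphatidylinositol in 10 mM Tris-HCl pH 7.5, 3 mM MgCl2, 50 mM NaCl, 0.05% CHAPS, 1 mM DTT. Reaction started with 1 μM ATP, 60 min at room temperature; remaining ATP measured by Kinase-Glo luminescence. IC50 from 4-parameter logistic fit of 8-point titrations.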
(In general: Kinase-Glo measures the ATP left after a reaction by luminescence.)

The target of the next assay is T3, PI3K delta (Homo sapiens, UniProt O00329).
T3 construct: for the full-length p110-d subunit are generated and fused by overlapping PCR; p85(iSH2) fusion partner (see partner chain) (N); His tag (C); made in house; host or cells: baculovirus; Tn5 (Trichoplusia ni) or TiniPro insect cells
T3 sequence (O00329 with tags, fused parts or gaps limits assumed): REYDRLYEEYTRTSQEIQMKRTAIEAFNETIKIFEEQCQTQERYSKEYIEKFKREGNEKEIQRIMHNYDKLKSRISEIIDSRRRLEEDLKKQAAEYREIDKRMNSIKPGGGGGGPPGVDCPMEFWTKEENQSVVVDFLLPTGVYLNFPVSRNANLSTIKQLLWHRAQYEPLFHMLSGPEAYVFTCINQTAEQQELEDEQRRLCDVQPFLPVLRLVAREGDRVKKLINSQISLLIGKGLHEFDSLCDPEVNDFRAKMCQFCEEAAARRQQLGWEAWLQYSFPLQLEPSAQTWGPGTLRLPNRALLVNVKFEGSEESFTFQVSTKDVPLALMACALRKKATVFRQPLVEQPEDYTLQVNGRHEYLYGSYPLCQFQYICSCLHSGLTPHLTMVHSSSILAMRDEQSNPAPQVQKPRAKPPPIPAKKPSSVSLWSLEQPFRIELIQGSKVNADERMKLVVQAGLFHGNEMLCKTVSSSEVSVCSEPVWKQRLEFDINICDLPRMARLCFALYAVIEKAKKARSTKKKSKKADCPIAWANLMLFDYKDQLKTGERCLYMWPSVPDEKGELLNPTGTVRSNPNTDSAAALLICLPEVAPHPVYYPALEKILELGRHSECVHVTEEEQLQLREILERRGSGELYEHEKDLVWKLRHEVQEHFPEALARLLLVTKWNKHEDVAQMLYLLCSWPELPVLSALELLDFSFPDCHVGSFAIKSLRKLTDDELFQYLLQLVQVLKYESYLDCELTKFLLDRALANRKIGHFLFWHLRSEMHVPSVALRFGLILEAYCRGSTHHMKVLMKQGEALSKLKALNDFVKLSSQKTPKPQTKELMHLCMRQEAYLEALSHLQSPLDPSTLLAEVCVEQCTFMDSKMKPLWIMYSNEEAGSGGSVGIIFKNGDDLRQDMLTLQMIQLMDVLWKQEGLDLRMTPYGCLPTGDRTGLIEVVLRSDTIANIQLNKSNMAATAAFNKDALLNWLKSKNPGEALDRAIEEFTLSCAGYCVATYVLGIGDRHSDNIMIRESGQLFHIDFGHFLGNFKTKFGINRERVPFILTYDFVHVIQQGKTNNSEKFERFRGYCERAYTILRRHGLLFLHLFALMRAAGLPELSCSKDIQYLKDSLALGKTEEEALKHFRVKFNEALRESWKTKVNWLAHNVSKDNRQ
The assay can be described thus: PI3K delta kinase assay (Kinase-Glo luminescence). In kind it is biochemical. The gist of the method:
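Recombinant p85(iSH2)-Gly linker-p110δ full-length construct (BV1060, C-terminal His tag) was used at 10 nM with 10 μg/mL phosphatidylinositol and 1 μM ATP in 10 mM Tris-HCl pH 7.5, 3 mM MgCl2, 50 mM NaCl, 0.05% CHAPS, 1 mM DTT. After 60 min at room temperature, remaining ATP was measured by Kinase-Glo luminescence.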

T2 sequence (P42336 with tags, fused parts or gaps limits assumed): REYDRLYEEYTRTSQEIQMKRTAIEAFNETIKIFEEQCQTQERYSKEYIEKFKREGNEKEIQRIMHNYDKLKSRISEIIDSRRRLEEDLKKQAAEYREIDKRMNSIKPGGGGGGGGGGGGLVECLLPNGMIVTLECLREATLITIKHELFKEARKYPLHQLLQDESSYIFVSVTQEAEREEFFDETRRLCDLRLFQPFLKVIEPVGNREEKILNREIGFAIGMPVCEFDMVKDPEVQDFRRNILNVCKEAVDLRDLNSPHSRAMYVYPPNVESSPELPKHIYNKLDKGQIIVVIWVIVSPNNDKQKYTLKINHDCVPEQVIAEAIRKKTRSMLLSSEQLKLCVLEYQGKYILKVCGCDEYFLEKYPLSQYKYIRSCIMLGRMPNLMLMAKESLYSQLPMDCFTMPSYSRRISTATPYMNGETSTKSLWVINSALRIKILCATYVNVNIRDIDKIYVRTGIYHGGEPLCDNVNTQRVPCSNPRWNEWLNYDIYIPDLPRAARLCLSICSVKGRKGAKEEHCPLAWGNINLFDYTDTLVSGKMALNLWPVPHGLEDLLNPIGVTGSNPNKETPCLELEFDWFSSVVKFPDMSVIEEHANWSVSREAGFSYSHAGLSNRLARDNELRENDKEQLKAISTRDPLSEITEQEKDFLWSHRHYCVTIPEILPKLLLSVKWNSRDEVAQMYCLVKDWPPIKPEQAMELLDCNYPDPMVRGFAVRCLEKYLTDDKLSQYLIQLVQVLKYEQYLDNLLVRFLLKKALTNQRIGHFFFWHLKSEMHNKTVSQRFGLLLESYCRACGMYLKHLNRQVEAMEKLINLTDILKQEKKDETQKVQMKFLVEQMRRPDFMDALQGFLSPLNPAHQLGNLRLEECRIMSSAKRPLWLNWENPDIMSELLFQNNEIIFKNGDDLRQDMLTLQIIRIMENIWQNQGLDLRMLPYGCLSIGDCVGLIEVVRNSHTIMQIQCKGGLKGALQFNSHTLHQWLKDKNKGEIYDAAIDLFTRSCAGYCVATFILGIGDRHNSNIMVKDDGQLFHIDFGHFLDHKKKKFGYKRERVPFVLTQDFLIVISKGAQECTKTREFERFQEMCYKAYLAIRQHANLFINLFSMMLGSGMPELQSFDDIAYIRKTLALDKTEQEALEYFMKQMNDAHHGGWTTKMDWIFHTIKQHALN
T1 sequence (P42345 1360-2549 limits assumed): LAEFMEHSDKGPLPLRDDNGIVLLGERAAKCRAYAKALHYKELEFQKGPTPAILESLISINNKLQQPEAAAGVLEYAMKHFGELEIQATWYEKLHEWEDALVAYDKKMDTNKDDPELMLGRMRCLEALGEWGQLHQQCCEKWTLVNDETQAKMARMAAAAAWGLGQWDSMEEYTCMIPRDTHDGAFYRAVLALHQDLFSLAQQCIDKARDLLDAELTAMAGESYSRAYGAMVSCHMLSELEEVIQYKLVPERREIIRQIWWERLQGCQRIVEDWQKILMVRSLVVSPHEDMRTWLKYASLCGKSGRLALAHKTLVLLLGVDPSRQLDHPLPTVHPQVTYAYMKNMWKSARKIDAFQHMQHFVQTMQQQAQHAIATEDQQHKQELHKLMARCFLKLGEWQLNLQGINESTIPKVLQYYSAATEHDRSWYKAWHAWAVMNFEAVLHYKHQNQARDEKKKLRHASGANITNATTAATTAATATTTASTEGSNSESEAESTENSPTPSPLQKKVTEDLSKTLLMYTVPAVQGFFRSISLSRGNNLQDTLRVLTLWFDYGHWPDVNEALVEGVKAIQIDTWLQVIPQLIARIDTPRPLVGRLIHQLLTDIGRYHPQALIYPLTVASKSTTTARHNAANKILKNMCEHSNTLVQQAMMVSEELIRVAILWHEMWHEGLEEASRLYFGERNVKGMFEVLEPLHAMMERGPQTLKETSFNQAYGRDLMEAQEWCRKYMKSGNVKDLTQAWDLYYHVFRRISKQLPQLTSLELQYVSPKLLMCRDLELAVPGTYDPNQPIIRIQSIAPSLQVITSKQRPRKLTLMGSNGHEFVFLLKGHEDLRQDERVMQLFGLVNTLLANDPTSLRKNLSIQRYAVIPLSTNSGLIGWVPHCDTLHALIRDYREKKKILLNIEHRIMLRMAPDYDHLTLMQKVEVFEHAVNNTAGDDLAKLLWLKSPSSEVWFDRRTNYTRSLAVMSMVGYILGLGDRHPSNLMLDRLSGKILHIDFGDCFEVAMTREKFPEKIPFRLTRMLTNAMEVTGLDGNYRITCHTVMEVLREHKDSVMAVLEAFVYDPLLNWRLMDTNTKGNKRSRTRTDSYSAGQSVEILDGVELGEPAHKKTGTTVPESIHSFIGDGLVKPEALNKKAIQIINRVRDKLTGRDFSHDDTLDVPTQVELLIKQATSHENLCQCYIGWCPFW

Consider `CNS(=O)(=O)c1cccc(-c2ccc3ncc4c(c3c2)n(-c2cn(C)nc2C)c(=O)n4C)c1` [Example 39, 3-[1-(1,3-Dimethyl-1H-pyrazol-4-yl)-3-methyl-2-oxo-2,3-dihydro-1H-imidazo[4,5-c]quinolin-8-yl]-N-methyl-benzenesulfonamide], for which the IC50 was 37 nM in assay [1], 69 nM at mTOR, < 3 nM at PI3K alpha and 3 nM on PI3K delta.

Regarding `Cc1cc(-n2c(=O)n(C)c3cnc4ccc(-c5cnc(C)c(O)c5)cc4c32)n(C)n1` [Example 185.2, 1-(2,5-Dimethyl-2H-pyrazol-3-yl)-8-(5-hydroxy-6-methyl-pyridin-3-yl)-3-methyl-1,3-dihydro-imidazo[4,5-c]quinolin-2-one], the half-maximal inhibitory concentration (IC50) in assay [1] amounted to 32 nM; at mTOR, 19 nM; on PI3K alpha it was 11 nM; on PI3K delta it was 6 nM.

In the case of `Cc1nn(C)cc1-n1c(=O)n(C)c2cnc3ccc(-c4cccc(NS(C)(=O)=O)c4)cc3c21` [Example 47, N-{3-[1-(1,3-dimethyl-1H-pyrazol-4-yl)-3-methyl-2-oxo-2,3-dihydro-1H-imidazo[4,5-c]quinolin-8-yl]-phenyl}-methanesulfonamide], the IC50 in assay [1] was 127 nM; on mTOR, 281 nM; on PI3K alpha it was 73 nM; at PI3K delta it was 178 nM.

As for `CCNc1ncc(-c2ccc3ncc4c(c3c2)n(-c2cn(C)nc2C)c(=O)n4C)cc1C(F)(F)F` [Example 145.2, 1-(1,3-Dimethyl-1H-pyrazol-4-yl)-8-(6-ethylamino-5-trifluoromethyl-pyridin-3-yl)-3-methyl-1,3-dihydro-imidazo[4,5-c]quinolin-2-one], the half-inhibitory concentration (IC50) in assay [1] amounted to 0.94 nM; at mTOR it was 16 nM; on PI3K alpha it was 27 nM; at PI3K delta it was 9 nM.

Consider `CCOCc1cc(-c2ccc3ncc4c(c3c2)n(-c2cn(C(C)C)nc2C)c(=O)n4C)cnc1N` [Example 166.3, 8-(6-Amino-5-ethoxymethyl-pyridin-3-yl)-1-(1-isopropyl-3-methyl-1H-pyrazol-4-yl)-3-methyl-1,3-dihydro-imidazo[4,5-c]quinolin-2-one], for which the 50% inhibitory concentration (IC50) was found to be 5 nM in assay [1], 55 nM at mTOR, 10 nM at PI3K alpha and 6 nM on PI3K delta.

For `Cc1nn(C)cc1-n1c(=O)n(C)c2cnc3ccc(-c4ccc(-c5ncc[nH]5)cc4)cc3c21` [Example 77, 1-(1,3-Dimethyl-1H-pyrazol-4-yl)-8-[4-(1H-imidazol-2-yl)-phenyl]-3-methyl-1,3-dihydro-imidazo[4,5-c]quinolin-2-one], the half-maximal inhibitory concentration (IC50) in assay [1] is 5 nM; at mTOR it was < 3 nM; at PI3K alpha, 5 nM; on PI3K delta, 8 nM.

For the compound `Cc1nn(C)cc1-n1c(=O)n(C)c2cnc3ccc(-c4cncc(N(C)C5CCC5)c4)cc3c21` [Example 174, 8-[5-(Cyclobutyl-methyl-amino)-pyridin-3-yl]-1-(1,3-dimethyl-1H-pyrazol-4-yl)-3-methyl-1,3-dihydro-imidazo[4,5-c]quinolin-2-one], the IC50 in assay [1] is 3 nM; on mTOR, 7 nM; at PI3K alpha it was 17 nM; at PI3K delta, 23 nM.

`[2H]C([2H])([2H])OCc1ncc(-c2ccc3ncc4c(c3c2)n(-c2cn(C)nc2C)c(=O)n4C)cc1OCC` [Example 198, 1-(1,3-Dimethyl-1H-pyrazol-4-yl)-8-(5-ethoxy-6-trideuteromethoxymethyl-pyridin-3-yl)-3-methyl-1,3-dihydro-imidazo[4,5-c]quinolin-2-one]: the 50% inhibitory concentration (IC50) amounted to 3 nM in assay [1], 73 nM at mTOR, 17 nM on PI3K alpha and 7 nM at PI3K delta.

Consider `CNc1ncc(-c2ccc3ncc4c(c3c2)n(-c2cn(C)nc2Cl)c(=O)n4C)cc1C` [Example 119, 1-(3-Chloro-1-methyl-1H-pyrazol-4-yl)-3-methyl-8-(5-methyl-6-methylamino-pyridin-3-yl)-1,3-dihydro-imidazo[4,5-c]quinolin-2-one], for which the concentration for half-maximal inhibition (IC50) is 1 nM in assay [1], < 3 nM on mTOR, 16 nM on PI3K alpha and 9 nM on PI3K delta.

In the case of `Cc1nn(C)cc1-n1c(=O)n(C)c2cnc3ccc(-c4cnc(N)c(C(F)(F)F)c4)cc3c21` [Example 25.1, 8-(6-Amino-5-trifluoromethyl-pyridin-3-yl)-1-(1,3-dimethyl-1H-pyrazol-4-yl)-3-methyl-1,3-dihydro-imidazo[4,5-c]quinolin-2-one], the IC50 in assay [1] came out at 1 nM; on mTOR, 9 nM; on PI3K alpha, 14 nM; on PI3K delta, 13 nM.

In the case of `Cc1nn(C(C)C)cc1-n1c(=O)n(C)c2cnc3ccc(-c4cnc(Cl)c(N)c4)cc3c21` [Example 152.1, 8-(5-Amino-6-chloro-pyridin-3-yl)-1-(1-isopropyl-3-methyl-1H-pyrazol-4-yl)-3-methyl-1,3-dihydro-imidazo[4,5-c]quinolin-2-one], the IC50 in assay [1] worked out at 2 nM; on mTOR, 13 nM; at PI3K alpha it was 27 nM; at PI3K delta it was 8 nM.

For `CNc1ccc(-c2ccc3ncc4c(c3c2)n(-c2cn(C(C)C)nc2C)c(=S)n4C)cn1` [Example 241, 1-(1-isopropyl-3-methyl-1H-pyrazol-4-yl)-3-methyl-8-(6-(methylamino)pyridin-3-yl)-1H-imidazo[4,5-c]quinoline-2(3H)-thione], the half-maximal inhibitory concentration (IC50) in assay [1] was < 0.5 nM; on mTOR it was 79 nM; on PI3K alpha it was 18 nM; at PI3K delta, 147 nM.

Turning to `Cc1nn(C)cc1-n1c(=S)n(C)c2cnc3ccc(-c4cccnc4)cc3c21` [Example 128.1, 1-(1,3-Dimethyl-1H-pyrazol-4-yl)-3-methyl-8-pyridin-3-yl-1,3-dihydro-imidazo[4,5-c]quinoline-2-thione], the IC50 worked out at 9 nM in assay [1], 69 nM at mTOR, 11 nM on PI3K alpha and 22 nM at PI3K delta.

In the case of `CCOCc1cc(-c2ccc3ncc4c(c3c2)n(-c2cn(C)nc2Cl)c(=O)n4C)cnc1N` [Example 166.4, 8-(6-Amino-5-ethoxymethyl-pyridin-3-yl)-1-(3-chloro-1-methyl-1H-pyrazol-4-yl)-3-methyl-1,3-dihydro-imidazo[4,5-c]quinolin-2-one], the IC50 in assay [1] is 1 nM; at mTOR, 16 nM; on PI3K alpha, 9 nM; at PI3K delta, < 3 nM.

As usually defined, the IC50 is the concentration that inhibits the measured activity by half.
